The subject of this test is CD8F1 mice, subcutaneous mammary adenocarcinoma, T/C%. Kind of test: NCI In Vivo Anticancer Drug Screen. Data for tumor model Mammary Adenocarcinoma CD8F1 (subcutaneous) in CD8F1. Conditions: higher = larger tumour. Summed up:
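Antitumor activity is assessed in transplantable-tumor mice by comparing the treated group with a vehicle-treated control group. Survival or tumor size serves as the measure, reported as T divided by C.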

The mark [1] stands for this setting: endpoint: median tumor weight (est.), dose: 100.0 mg/kg/injection, schedule: Q07DX005 (ip), vehicle: saline with Tween-80.
The mark [2] stands for this setting: endpoint: median tumor weight (est.), dose: 200.0 mg/kg/injection, schedule: Q07DX005 (ip), vehicle: saline with Tween-80.
[3] abbreviates: endpoint: median tumor weight (est.), dose: 400.0 mg/kg/injection, schedule: Q07DX005 (ip), vehicle: saline with Tween-80.
The mark [4] stands for this setting: endpoint: median tumor weight (est.), dose: 12.5 mg/kg/injection, schedule: Q07DX005 (ip), vehicle: saline with Tween-80.
The mark [5] stands for this setting: endpoint: median tumor weight change, dose: 125.0 mg/kg/injection, schedule: Q01DX001 (ip), vehicle: saline with Tween-80.
Setting [6] is: endpoint: median tumor weight change, dose: 500.0 mg/kg/injection, schedule: Q01DX001 (ip), vehicle: saline with Tween-80.
[7] abbreviates: endpoint: median tumor weight change, dose: 1000.0 mg/kg/injection, schedule: Q01DX001 (ip), vehicle: saline with Tween-80.
Setting [8] is: endpoint: median tumor weight change, dose: 250.0 mg/kg/injection, schedule: Q01DX001 (ip), vehicle: saline with Tween-80.
Where [9] appears, read: endpoint: median tumor weight (est.), dose: 2.0 mg/kg/injection, schedule: Q07DX005 (ip), vehicle: saline.
Where [10] appears, read: endpoint: median tumor weight (est.), dose: 4.0 mg/kg/injection, schedule: Q07DX005 (ip), vehicle: saline.
Where [11] appears, read: endpoint: median tumor weight (est.), dose: 8.0 mg/kg/injection, schedule: Q07DX005 (ip), vehicle: saline.
Setting [12] is: endpoint: median tumor weight (est.), dose: 16.0 mg/kg/injection, schedule: Q07DX005 (ip), vehicle: saline.
Setting [13] is: endpoint: median tumor weight (est.), dose: 1.0 mg/kg/injection, schedule: Q07DX005 (ip), vehicle: Klucel (hydroxypropylcellulose) (HPC).
The mark [14] stands for this setting: endpoint: median tumor weight (est.), dose: 2.0 mg/kg/injection, schedule: Q07DX005 (ip), vehicle: Klucel (hydroxypropylcellulose) (HPC).

Values joined by “and” are separate entries in the source; they are usually repeats but may differ in a detail not shown here. Equal values may be shown once. Results filed as inconclusive are left out.

As to `Nc1nc2c(ncn2C2OC(CO)C(O)C2O)c(=O)[nH]1` (stereo not drawn), the T/C runs as follows: under setting [1], 86 % of control; under setting [2], 92 % of control; under setting [3], 110 % of control; (endpoint: median tumor weight (est.), dose: 800.0 mg/kg/injection, schedule: Q07DX005 (ip), vehicle: saline with Tween-80) 88 % of control; (endpoint: median tumor weight (est.), dose: 1600.0 mg/kg/injection, schedule: Q07DX005 (ip), vehicle: saline with Tween-80) 103 % of control; (endpoint: median tumor weight (est.), dose: 3200.0 mg/kg/injection, schedule: Q07DX005 (ip), vehicle: saline with Tween-80) 84 % of control.
For `CCOC(=O)C1(c2ccccc2)C(=O)Oc2ccccc21` (stereo not drawn), the T/C was 84 % of control under setting [4]; 69 % of control (endpoint: median tumor weight (est.), dose: 25.0 mg/kg/injection, schedule: Q07DX005 (ip), vehicle: saline with Tween-80); 97 % of control (endpoint: median tumor weight (est.), dose: 50.0 mg/kg/injection, schedule: Q07DX005 (ip), vehicle: saline with Tween-80); 119 % of control under setting [1]; 113 % of control under setting [2]; 70 % of control under setting [3]. Further, the T/C by setting is: under setting [5], 82 % of control; under setting [6], 71 % of control; under setting [7], 61 % of control; (endpoint: median tumor weight change, dose: 2000.0 mg/kg/injection, schedule: Q01DX001 (ip), vehicle: saline with Tween-80) 100 % of control.
In the case of `O=C(Nc1cccc(Cl)c1)ON1C(=O)C2C(C1=O)C1(Cl)C(Cl)C(Cl)C2(Cl)C1(Cl)Cl` (stereo not drawn), the T/C is, setting by setting: (endpoint: median tumor weight change, dose: 62.5 mg/kg/injection, schedule: Q01DX001 (ip), vehicle: saline with Tween-80) 112 % of control; under setting [5], 112 % of control; under setting [8], 95 % of control.
For the compound `CC(=O)Oc1c[nH]c(=O)[nH]c1=O`, the T/C is 62 % of control under setting [5], 84 % of control under setting [8], 32 % of control under setting [6] and 32 % of control under setting [7].
Turning to `CNC(=O)OCc1c(COC(=O)NC)c(-c2ccc(F)cc2)n2c1CCC2`, the T/C (endpoint: median tumor weight (est.), dose: 3.12 mg/kg/injection, schedule: Q07DX005 (ip), vehicle: Klucel (hydroxypropylcellulose) (HPC)) was 49 % of control; the T/C (endpoint: median tumor weight (est.), dose: 6.25 mg/kg/injection, schedule: Q07DX005 (ip), vehicle: Klucel (hydroxypropylcellulose) (HPC)) is 63 % of control; the T/C (endpoint: median tumor weight (est.), dose: 12.5 mg/kg/injection, schedule: Q07DX005 (ip), vehicle: Klucel (hydroxypropylcellulose) (HPC)) was 84 % of control; the T/C (endpoint: median tumor weight (est.), dose: 25.0 mg/kg/injection, schedule: Q07DX005 (ip), vehicle: Klucel (hydroxypropylcellulose) (HPC)) was 48 % of control; the T/C (endpoint: median tumor weight (est.), dose: 50.0 mg/kg/injection, schedule: Q07DX005 (ip), vehicle: Klucel (hydroxypropylcellulose) (HPC)) is 39 % of control.
Consider `CC[C@H]1CN2CCc3cc(OC)c(OC)cc3[C@@H]2C[C@@H]1C[C@H]1NCCc2cc(O)c(OC)cc21`, for which the T/C was 67 % of control under setting [9], 95 % of control under setting [10], 92 % of control under setting [11] and 47 % of control under setting [12].
For `CC1CC(C)CC(C)C(O)/C(C#N)=C/C=C/CC(C2CCCC2C(=O)O)OC(=O)CC(O)C(C)C1` (stereo not drawn), the T/C was 71 % of control (endpoint: median tumor weight (est.), dose: 0.5 mg/kg/injection, schedule: Q07DX005 (ip), vehicle: Klucel (hydroxypropylcellulose) (HPC)); 59 % of control under setting [13]; 71 % of control under setting [14]; 105 % of control (endpoint: median tumor weight (est.), dose: 3.0 mg/kg/injection, schedule: Q07DX005 (ip), vehicle: Klucel (hydroxypropylcellulose) (HPC)); 114 % of control (endpoint: median tumor weight (est.), dose: 4.0 mg/kg/injection, schedule: Q07DX005 (ip), vehicle: Klucel (hydroxypropylcellulose) (HPC)); 124 % of control (endpoint: median tumor weight (est.), dose: 6.0 mg/kg/injection, schedule: Q07DX005 (ip), vehicle: Klucel (hydroxypropylcellulose) (HPC)). Moreover, the T/C is 36 % of control (endpoint: median tumor weight (est.), dose: 8.0 mg/kg/injection, schedule: Q07DX005 (ip), vehicle: Klucel (hydroxypropylcellulose) (HPC)); 102 % of control (endpoint: median tumor weight (est.), dose: 12.0 mg/kg/injection, schedule: Q07DX005 (ip), vehicle: Klucel (hydroxypropylcellulose) (HPC)); 14 % of control (endpoint: median tumor weight (est.), dose: 16.0 mg/kg/injection, schedule: Q07DX005 (ip), vehicle: Klucel (hydroxypropylcellulose) (HPC)).
For the compound `CC1=C[C@@]23[C@H](C=C(C(=O)O)[C@@H]2COC(=O)[C@]32CO2)[C@@H]1C`, the T/C was 116 % of control (endpoint: median tumor weight change, dose: 0.31 mg/kg/injection, schedule: Q01DX001 (ip), vehicle: saline); 115 % of control (endpoint: median tumor weight change, dose: 0.62 mg/kg/injection, schedule: Q01DX001 (ip), vehicle: saline); 98 % of control (endpoint: median tumor weight change, dose: 1.25 mg/kg/injection, schedule: Q01DX001 (ip), vehicle: saline); 85 % of control (endpoint: median tumor weight change, dose: 2.5 mg/kg/injection, schedule: Q01DX001 (ip), vehicle: saline); 100 % of control (endpoint: median tumor weight change, dose: 5.0 mg/kg/injection, schedule: Q01DX001 (ip), vehicle: saline).
`CC(C)CCCCCCCCCCCCC(=O)NCC(=O)NC1C(O)C(O)C(Nc2ncnc3nc[nH]c23)OC1C(O)CO` (stereo not drawn): the T/C is 169 % of control under setting [13]; 51 % of control and 76 % of control under setting [14].
`C=C/C(C)=C/[C@H](C)C(=O)C[C@H](O)CC1CC(=O)NC(=O)C1`: the T/C is, setting by setting: (endpoint: median tumor weight (est.), dose: 6.25 mg/kg/injection, schedule: Q07DX005 (ip), vehicle: saline with Tween-80) 41 % of control; under setting [4], 62 % of control; under setting [1], 157 % of control; under setting [2], 50 % of control.
With `COc1cc([C@@H]2c3cc4c(cc3[C@@H](OC3OC5COC(C)OC5C(O)C3O)[C@H]3COC(=O)[C@H]23)OCO4)cc(OC)c1O` (stereo partly drawn), the T/C under setting [9] is 74 % of control; the T/C under setting [10] is 110 % of control; the T/C under setting [11] is 51 % of control; the T/C (endpoint: median tumor weight (est.), dose: 16.0 mg/kg/injection, schedule: Q07DX005 (ip), vehicle: clinical formulation) is 38 % of control; the T/C under setting [12] was 25 % of control and 48 % of control; the T/C (endpoint: median tumor weight (est.), dose: 32.0 mg/kg/injection, schedule: Q07DX005 (ip), vehicle: clinical formulation) was 11 % of control. The T/C (endpoint: median tumor weight (est.), dose: 32.0 mg/kg/injection, schedule: Q07DX005 (ip), vehicle: saline) is 8 % of control and 9 % of control.
For `C[N+](C)(C)c1ncnc2c1ncn2C1CCCO1` (stereo not drawn), the T/C (endpoint: median tumor weight (est.), dose: 12.5 mg/kg/injection, schedule: Q07DX005 (ip), vehicle: saline) was 85 % of control; the T/C (endpoint: median tumor weight (est.), dose: 25.0 mg/kg/injection, schedule: Q07DX005 (ip), vehicle: saline) was 89 % of control; the T/C (endpoint: median tumor weight (est.), dose: 50.0 mg/kg/injection, schedule: Q07DX005 (ip), vehicle: saline) is 87 % of control; the T/C (endpoint: median tumor weight (est.), dose: 100.0 mg/kg/injection, schedule: Q07DX005 (ip), vehicle: saline) was 92 % of control.

Values taken from PubChem BioAssay AID220 (DTP/NCI, 2004).
